Results reported in patent US4181715A (priority 1975, dated 1980).

Experiments:
[1] = tested on: rice blast pathogenic fungus (Pyricularia oryzae); format: in vivo; settings: 5 ppm
[2] = tested on: Trichomonas vaginalis Ito; assay: Antitrichomonas activity test using mice; format: in vivo, Trichomonas vaginalis Ito in SLC-ICR strain male mice
Text: Test Compounds: SF-1540-A' (substance SF-1540 treated with methanol). Control--Flagyl (MNZ, available from Shionogi Seiyaku K.K., Japan)=Metronidazol--1'-(2'-Hydroxyethyl)-2'-methyl-5'-nitroimidazole [drawing 1]
1. Test protozoa strain: Trichomonas vaginalis Ito
2. Host animals: SLC-ICR strain male mice of average body weight of 20 g. and 5-week age, each group consisting of 5 animals.
3. Inoculation of protozoa: Protozoa were inoculated to Bacto-Kupferberg Trichomonas base (Difco; 20% calf serum added), cultivation was conducted at 37° C. for 24 hours, propagated protozoa were collected and centrifuged at 1500 r.p.m. for 5 minutes and then washed twice with centrifugation in sterilized Locke-Ringer's solution. The supernatant was discarded and the residue was diluted with sterilized Ringer's solution so as to have a protozoal number of 500×10^4 ml. Each 0.2 ml. portion (the protozoal number of 100×10^4) was inoculated to mice at subcutaneous sites of the back thereof wherein fur was previously removed.
4. Preparation of test samples: Each test compound was asceptically weighed, finely-divided in a sterilized mortar and then suspended in a 1% CMC solution to form suspensions of given concentrations.
5. Dose and administration: The SF-1540-A' was used at 3 dose levels: 50 mg./kg. (1 mg./0.2 ml./mouse/day), 25 mg./kg. (0.5 mg./0.2 ml./mouse/day) and 12.5 mg./kg. (0.25 mg./0.2 ml./mouse/day), while Flagyl as control was used at 2 dose levels: 25 mg./kg. (0.5 mg./0.2 ml./mouse/day) and 12.5 mg./kg. (0.25 mg./0.2 ml./mouse/day). After 24 hours from protozoa inoculation, the SF-1540-A' was given subcutaneously and Flagyl orally once a day for 6 days (Total, 6 times). As control, each 0.2 ml. portion of a 1% CMC solution was subcutaneously administered.
Formation of an abscess at a subcutaneous site of the back of a host animal was visually detectable for its protuberance after 48 hours from the protozoa inoculation.
Size of abscess was measured when sacrificed and cultivated to confirm effectiveness of the test compound after 24 hours from the 6 administrations.

SMILES | Preventive & curative value [1] | Average number of diseased spots per leaf ([1]; after 5 days) | difference from 1% CMC group (Tukey) ([2]; 12.5 mg./kg. orally) | difference from 1% CMC group (Tukey) ([2]; 25 mg./kg. orally) | abscess, visual observation ([2]; 25 mg./kg. orally once a day, after 3 administrations) | abscess at sacrifice, 24 hours after 6 administrations ([2]; mouse, in vivo, po) | bulge upon sacrifice ([2]; mouse, in vivo, po)
CN(CCC(N)CC(=O)NC1C=CC(n2ccc(N)nc2=O)OC1C(=O)O)C(=N)N (stereo not shown) [Blasticidin S] | 85% | 3.6 |  |  |  |  | 
Cc1ncc([N+](=O)[O-])n1CCO [Flagyl, 1'-(2'-Hydroxyethyl)-2'-methyl-5'-nitroimidazole] |  |  | significant at the 5% level of significance | significant at the 1% level of significance | a remarkable reduction in abscess | abscess disappeared | only a slight bulge
